Assays:
Format in all cases: in vivo
Details in all cases: evaluated after 13 days
[1] = tested on: Echinochloa crus-galli (ECHCG); assay: Post-emergence Test, Echinochloa crus-galli (ECHCG); design: key to percentage damage caused to the plant, ECHCG (five-point scale): 5=81-100%, 4=61-80%, 3=41-60%, 2=21-40%, 1=0-20% damage
In short: (§1)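 Scores are percentage plant damage on a 1–5 scale (1=0-20%, 2=21-40%, 3=41-60%, 4=61-80%, 5=81-100%), read 13 days after treatment. Pots received a spray at 1000 g/ha unless otherwise stated, formulated in acetone/water (50:50) containing 0.5% Tween 20.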

[2] = tested on: Setaria faberi (SETFA); assay: Post-emergence Test, Setaria faberi (SETFA); design: key to percentage damage caused to the plant, SETFA (five-point scale): 5=81-100%, 4=61-80%, 3=41-60%, 2=21-40%, 1=0-20% damage
In short: as §1

[3] = tested on: Zea mays (ZEAMX); assay: Pre-emergence Test, Zea mays (ZEAMX)
[4] = tested on: Setaria faberi (SETFA); assay: Pre-emergence Test, Setaria faberi (SETFA)
[5] = tested on: Amaranthus retoflexus (AMARE); assay: Post-emergence Test, Amaranthus retoflexus (AMARE); design: key to percentage damage caused to the plant, AMARE (five-point scale): 5=81-100%, 4=61-80%, 3=41-60%, 2=21-40%, 1=0-20% damage
In short: as §1

[6] = tested on: Amaranthus palmeri (AMAPA); assay: Post-emergence Test, Amaranthus palmeri (AMAPA); design: key: 5=81-100%, 4=61-80%, 3=41-60%, 2=21-40%, 1=0-20% damage
In short: as §1

[7] = tested on: Amaranthus retoflexus (AMARE); assay: Pre-emergence Test, Amaranthus retoflexus (AMARE)
[8] = tested on: Ipomoea hederacea (IPOHE); assay: Post-emergence Test, Ipomoea hederacea (IPOHE); design: key to percentage damage caused to the plant, IPOHE (five-point scale): 5=81-100%, 4=61-80%, 3=41-60%, 2=21-40%, 1=0-20% damage
In short: as §1

[9] = tested on: Zea mays (ZEAMX); assay: Post-emergence Test, Zea mays (ZEAMX); design: key to percentage damage caused to the plant, ZEAMX (five-point scale): 5=81-100%, 4=61-80%, 3=41-60%, 2=21-40%, 1=0-20% damage
In short: as §1

[10] = tested on: Echinochloa crus-galli (ECHCG); assay: Pre-emergence Test, Echinochloa crus-galli (ECHCG)
[11] = tested on: Amaranthus palmeri (AMAPA); assay: Pre-emergence Test, Amaranthus palmeri (AMAPA)
[12] = tested on: Ipomoea hederacea (IPOHE); assay: Pre-emergence Test, Ipomoea hederacea (IPOHE)

Row | SMILES | percentage damage caused to the plant, ECHCG (five-point scale) ([1]; 250 g/Ha) | percentage damage caused to the plant, ECHCG (five-point scale) ([1]; 1000 g/ha) | percentage damage caused to the plant, SETFA (five-point scale) ([2]; 250 g/Ha) | percentage damage caused to the plant, SETFA (five-point scale) ([2]; 1000 g/ha) | Pre-emergence Test ZEAMX, percentage damage caused to the plant (five-point scale) ([3]; 250 g/Ha (*)) | Pre-emergence Test ZEAMX, percentage damage caused to the plant (five-point scale) ([3]; 1000 g/ha) | Pre-emergence Test SETFA, percentage damage caused to the plant (five-point scale) ([4]; 250 g/Ha (*)) | Pre-emergence Test SETFA, percentage damage caused to the plant (five-point scale) ([4]; 1000 g/ha) | percentage damage caused to the plant, AMARE (five-point scale) ([5]; 250 g/Ha) | percentage damage caused to the plant, AMARE (five-point scale) ([5]; 1000 g/ha) | percentage damage caused to the plant, AMAPA (five-point scale) ([6]; 250 g/Ha) | percentage damage caused to the plant, AMAPA (five-point scale) ([6]; 1000 g/ha) | Pre-emergence Test AMARE, percentage damage caused to the plant (five-point scale) ([7]; 1000 g/ha) | percentage damage caused to the plant, IPOHE (five-point scale) ([8]; 250 g/Ha) | percentage damage caused to the plant, IPOHE (five-point scale) ([8]; 1000 g/ha) | percentage damage caused to the plant, ZEAMX (five-point scale) ([9]; 250 g/Ha) | percentage damage caused to the plant, ZEAMX (five-point scale) ([9]; 1000 g/ha) | Pre-emergence Test ECHCG, percentage damage caused to the plant (five-point scale) ([10]; 1000 g/ha) | Pre-emergence Test AMAPA, percentage damage caused to the plant (five-point scale) ([11]; 1000 g/ha) | Pre-emergence Test IPOHE, percentage damage caused to the plant (five-point scale) ([12]; 1000 g/ha) | other results
1 | CCn1c(Cn2ccc(I)n2)cc(=O)c(C(=O)O)c1-c1ccc(Cl)c(Cl)c1 [Compound 78, 2-(3,4-dichlorophenyl)-1-ethyl-6-[(3-iodopyrazol-1-yl)methyl]-4-oxo-pyridine-3-carboxylic acid] | 3 (3=41-60%) | 4 (4=61-80%) | 4 (4=61-80%) | 4 (4=61-80%) | 4 (4=61-80%) | 3 (3=41-60%) | 5 (5=81-100%) | 5 (5=81-100%) | 1 (1=0-20%) | 3 (3=41-60%) | 2 (2=21-40%) | 2 (2=21-40%) | 2 (2=21-40%) | 4 (4=61-80%) | 4 (4=61-80%) | 1 (1=0-20%) | 3 (3=41-60%) | 5 (5=81-100%) | 2 (2=21-40%) | 4 (4=61-80%) | Pre-emergence Test AMARE, percentage damage caused to the plant (five-point scale) ([7]; 250 g/Ha (*)): 2 (2=21-40%); Pre-emergence Test ECHCG, percentage damage caused to the plant (five-point scale) ([10]; 250 g/Ha (*)): 5 (5=81-100%); Pre-emergence Test AMAPA, percentage damage caused to the plant (five-point scale) ([11]; 250 g/Ha (*)): 3 (3=41-60%); Pre-emergence Test IPOHE, percentage damage caused to the plant (five-point scale) ([12]; 250 g/Ha (*)): 4 (4=61-80%)
2 | CCn1c(Cn2nc(C(F)(F)F)cc2C(F)(F)F)cc(=O)c(C(=O)O)c1-c1ccc(Cl)c(Cl)c1 [Compound 135, 6-[[3,5-bis(trifluoromethyl)pyrazol-1-yl]methyl]-2-(3,4-dichlorophenyl)-1-ethyl-4-oxo-pyridine-3-carboxylic acid] | 1 (1=0-20%) | – | – | 4 (4=61-80%) | – | 1 (1=0-20%) | – | 0 | 1 (1=0-20%) | 2 (2=21-40%) | 1 (1=0-20%) | 1 (1=0-20%) | 1 (1=0-20%) | 2 (2=21-40%) | 3 (3=41-60%) | 1 (1=0-20%) | 2 (2=21-40%) | 1 (1=0-20%) | 0 | 2 (2=21-40%) | –
3 | CCn1c(Cn2ccc(Cl)n2)cc(=O)c(C(=O)O)c1-c1ccc(S(C)(=O)=O)c(Cl)c1 [Compound 130, 2-(3-chloro-4-methylsulfonyl-phenyl)-6-[(3-chloropyrazol-1-yl)methyl]-1-ethyl-4-oxo-pyridine-3-carboxylic acid] | – | 0 | – | 1 (1=0-20%) | – | 0 | – | 0 | – | 1 (1=0-20%) | – | 2 (2=21-40%) | 1 (1=0-20%) | – | 1 (1=0-20%) | – | 0 | 0 | 1 (1=0-20%) | 0 | –
4 | CCn1c(Cn2ccc(C(F)(F)F)n2)cc(=O)c(C(=O)O)c1-c1ccc(F)c(F)c1 [Compound 31, 2-(3,4-difluorophenyl)-1-ethyl-4-oxo-6-[[3-(trifluoromethyl)pyrazol-1-yl]methyl]pyridine-3-carboxylic acid] | 2 (2=21-40%) | 4 (4=61-80%) | 4 (4=61-80%) | 4 (4=61-80%) | – | 0 | – | 5 (5=81-100%) | 1 (1=0-20%) | 2 (2=21-40%) | 0 | 2 (2=21-40%) | 0 | 4 (4=61-80%) | 2 (2=21-40%) | 1 (1=0-20%) | 3 (3=41-60%) | 5 (5=81-100%) | 0 | 1 (1=0-20%) | –
5 | Cn1c(Cn2ccc(C(F)(F)F)n2)cc(=O)c(C(=O)O)c1-c1ccc(C#N)c(Cl)c1 [Compound 117, 2-(3-chloro-4-cyano-phenyl)-1-methyl-4-oxo-6-[[3-(trifluoromethyl)pyrazol-1-yl]methyl]pyridine-3-carboxylic acid] | 3 (3=41-60%) | 4 (4=61-80%) | 3 (3=41-60%) | 4 (4=61-80%) | 0 | 1 (1=0-20%) | 4 (4=61-80%) | 5 (5=81-100%) | 0 | 1 (1=0-20%) | 0 | 2 (2=21-40%) | 2 (2=21-40%) | 3 (3=41-60%) | 3 (3=41-60%) | 1 (1=0-20%) | 4 (4=61-80%) | 4 (4=61-80%) | 2 (2=21-40%) | 2 (2=21-40%) | Pre-emergence Test AMARE, percentage damage caused to the plant (five-point scale) ([7]; 250 g/Ha (*)): 0; Pre-emergence Test ECHCG, percentage damage caused to the plant (five-point scale) ([10]; 250 g/Ha (*)): 3 (3=41-60%); Pre-emergence Test AMAPA, percentage damage caused to the plant (five-point scale) ([11]; 250 g/Ha (*)): 1 (1=0-20%); Pre-emergence Test IPOHE, percentage damage caused to the plant (five-point scale) ([12]; 250 g/Ha (*)): 0

Reference: patent US20250098679A1, “HERBICIDAL PYRIDONE DERIVATIVES” (SYNGENTA CROP PROTECTION AG, priority 2021, published 2025)
